Two compounds from ChEMBL document CHEMBL1145684, “New Guaiane Metabolites from the Caribbean Gorgonian Coral, Pseudopterogorgia americana” (J Nat Prod, 1997) can be followed below.

Structures are written as SMILES. In brackets after ≈: the same amount, converted by molar mass.

In data set [1] the test system is MOLT-4. Put plainly: Cytotoxicity against human MOLT4 cells. Type of data set: functional, cell-based.
Data set [2] in a line: Cytotoxicity against chinese hamster CHOK1 cells. Type of data set: cell-based, Cricetulus griseus. The conditions noted are these: CHO-K1 cells, read-out: ED50 (the source's name).
The subject of data set [3] is KM12. As to the kind of experiment: Cytotoxicity against human KM12 cells. The data set is classed as functional, cell-based.
Data set [4] concerns HeLa. As to the kind of experiment: Cytotoxicity against human HeLa cells. The data set is classed as functional. To be noted: read-out: ED50 (the source's name).

For `CO[C@]12C[C@@H](C)[C@]34O[C@H]3C[C@@]3(C)O[C@@]43CC1=C(C)C(=O)O2` [METHOXYAMERICANOLIDE A], in data set [1], the half-inhibitory concentration (IC50) (in general, the concentration that inhibits the measured activity by half) is 0.1 µg/mL (≈ 0.342 µM).

Regarding `CC1=C2CC3=C(C)C(=O)O[C@H]3C[C@@H](C)[C@@H]2CC1` [AMERICANOLIDE D], the CC50 in data set [2] came to 100 µg/mL (≈ 430 µM). This compound showed an IC50 in data set [3] of 0.1 µg/mL (≈ 0.43 µM). Besides, the EC50 in data set [4] was found to be 30 µg/mL (≈ 129 µM).
